Experimental data: ChEMBL document CHEMBL3860068, “Class II Phosphoinositide 3-Kinases as Novel Drug Targets” (J Med Chem, 2017)

Key:
[1] = Inhibition of class 4 PI3K (unknown origin); parameters: species or system Homo sapiens
[2] = Inhibition of class 1 PI3K (unknown origin); parameters: species or system Homo sapiens
[3] = biological target: T1, Phosphatidylinositol 4-phosphate 3-kinase C2 domain-containing subunit beta (Homo sapiens, UniProt O00750); test: Inhibition of PI3KC2beta (unknown origin)
T1 sequence (O00750 whole entry, the tested form may be a part): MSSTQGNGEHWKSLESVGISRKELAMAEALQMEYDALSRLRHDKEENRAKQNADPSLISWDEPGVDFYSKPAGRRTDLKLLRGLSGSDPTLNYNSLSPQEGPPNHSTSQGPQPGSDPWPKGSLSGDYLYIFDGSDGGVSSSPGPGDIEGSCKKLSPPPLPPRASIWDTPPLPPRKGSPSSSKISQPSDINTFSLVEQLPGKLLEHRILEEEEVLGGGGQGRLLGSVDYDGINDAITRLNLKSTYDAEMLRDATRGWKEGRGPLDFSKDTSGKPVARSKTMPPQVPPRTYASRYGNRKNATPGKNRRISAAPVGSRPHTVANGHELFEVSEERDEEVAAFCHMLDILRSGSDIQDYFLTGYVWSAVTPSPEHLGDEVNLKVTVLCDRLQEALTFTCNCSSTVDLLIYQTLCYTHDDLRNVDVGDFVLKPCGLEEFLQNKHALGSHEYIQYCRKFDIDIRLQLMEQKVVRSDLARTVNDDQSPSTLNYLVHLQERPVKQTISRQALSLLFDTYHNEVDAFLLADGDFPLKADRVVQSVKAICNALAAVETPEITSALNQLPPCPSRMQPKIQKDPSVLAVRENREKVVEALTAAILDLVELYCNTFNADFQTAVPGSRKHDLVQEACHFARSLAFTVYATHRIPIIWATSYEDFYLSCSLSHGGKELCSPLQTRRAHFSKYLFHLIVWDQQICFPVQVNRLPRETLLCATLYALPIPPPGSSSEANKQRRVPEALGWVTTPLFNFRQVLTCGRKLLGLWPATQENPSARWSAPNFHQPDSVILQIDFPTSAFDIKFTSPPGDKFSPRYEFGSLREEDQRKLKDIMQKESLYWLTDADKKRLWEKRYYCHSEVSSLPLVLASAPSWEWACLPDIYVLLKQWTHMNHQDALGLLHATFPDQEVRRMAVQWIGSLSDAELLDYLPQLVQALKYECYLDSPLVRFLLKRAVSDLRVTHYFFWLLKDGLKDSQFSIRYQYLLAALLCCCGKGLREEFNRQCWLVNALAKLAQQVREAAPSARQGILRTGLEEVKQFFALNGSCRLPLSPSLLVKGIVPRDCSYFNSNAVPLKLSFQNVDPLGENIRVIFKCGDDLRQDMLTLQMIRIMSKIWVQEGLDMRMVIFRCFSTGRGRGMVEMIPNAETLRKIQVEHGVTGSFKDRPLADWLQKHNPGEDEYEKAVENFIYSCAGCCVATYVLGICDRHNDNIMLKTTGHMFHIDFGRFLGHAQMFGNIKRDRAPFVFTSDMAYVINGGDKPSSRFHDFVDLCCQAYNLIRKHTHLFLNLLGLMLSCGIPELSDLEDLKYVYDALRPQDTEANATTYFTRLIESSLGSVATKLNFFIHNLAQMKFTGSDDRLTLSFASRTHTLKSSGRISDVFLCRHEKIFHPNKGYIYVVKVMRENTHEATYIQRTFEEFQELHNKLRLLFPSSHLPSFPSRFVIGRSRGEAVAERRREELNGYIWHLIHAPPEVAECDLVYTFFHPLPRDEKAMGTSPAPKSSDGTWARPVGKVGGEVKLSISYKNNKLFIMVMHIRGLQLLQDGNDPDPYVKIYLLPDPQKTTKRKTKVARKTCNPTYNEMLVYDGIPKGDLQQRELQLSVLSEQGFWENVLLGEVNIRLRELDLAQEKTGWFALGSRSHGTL

[4] = biological target: T2, Phosphatidylinositol 4-phosphate 3-kinase C2 domain-containing subunit alpha (Homo sapiens, UniProt O00443); test: Inhibition of PI3KC2alpha (unknown origin)
T2 sequence (O00443 whole entry, the tested form may be a part): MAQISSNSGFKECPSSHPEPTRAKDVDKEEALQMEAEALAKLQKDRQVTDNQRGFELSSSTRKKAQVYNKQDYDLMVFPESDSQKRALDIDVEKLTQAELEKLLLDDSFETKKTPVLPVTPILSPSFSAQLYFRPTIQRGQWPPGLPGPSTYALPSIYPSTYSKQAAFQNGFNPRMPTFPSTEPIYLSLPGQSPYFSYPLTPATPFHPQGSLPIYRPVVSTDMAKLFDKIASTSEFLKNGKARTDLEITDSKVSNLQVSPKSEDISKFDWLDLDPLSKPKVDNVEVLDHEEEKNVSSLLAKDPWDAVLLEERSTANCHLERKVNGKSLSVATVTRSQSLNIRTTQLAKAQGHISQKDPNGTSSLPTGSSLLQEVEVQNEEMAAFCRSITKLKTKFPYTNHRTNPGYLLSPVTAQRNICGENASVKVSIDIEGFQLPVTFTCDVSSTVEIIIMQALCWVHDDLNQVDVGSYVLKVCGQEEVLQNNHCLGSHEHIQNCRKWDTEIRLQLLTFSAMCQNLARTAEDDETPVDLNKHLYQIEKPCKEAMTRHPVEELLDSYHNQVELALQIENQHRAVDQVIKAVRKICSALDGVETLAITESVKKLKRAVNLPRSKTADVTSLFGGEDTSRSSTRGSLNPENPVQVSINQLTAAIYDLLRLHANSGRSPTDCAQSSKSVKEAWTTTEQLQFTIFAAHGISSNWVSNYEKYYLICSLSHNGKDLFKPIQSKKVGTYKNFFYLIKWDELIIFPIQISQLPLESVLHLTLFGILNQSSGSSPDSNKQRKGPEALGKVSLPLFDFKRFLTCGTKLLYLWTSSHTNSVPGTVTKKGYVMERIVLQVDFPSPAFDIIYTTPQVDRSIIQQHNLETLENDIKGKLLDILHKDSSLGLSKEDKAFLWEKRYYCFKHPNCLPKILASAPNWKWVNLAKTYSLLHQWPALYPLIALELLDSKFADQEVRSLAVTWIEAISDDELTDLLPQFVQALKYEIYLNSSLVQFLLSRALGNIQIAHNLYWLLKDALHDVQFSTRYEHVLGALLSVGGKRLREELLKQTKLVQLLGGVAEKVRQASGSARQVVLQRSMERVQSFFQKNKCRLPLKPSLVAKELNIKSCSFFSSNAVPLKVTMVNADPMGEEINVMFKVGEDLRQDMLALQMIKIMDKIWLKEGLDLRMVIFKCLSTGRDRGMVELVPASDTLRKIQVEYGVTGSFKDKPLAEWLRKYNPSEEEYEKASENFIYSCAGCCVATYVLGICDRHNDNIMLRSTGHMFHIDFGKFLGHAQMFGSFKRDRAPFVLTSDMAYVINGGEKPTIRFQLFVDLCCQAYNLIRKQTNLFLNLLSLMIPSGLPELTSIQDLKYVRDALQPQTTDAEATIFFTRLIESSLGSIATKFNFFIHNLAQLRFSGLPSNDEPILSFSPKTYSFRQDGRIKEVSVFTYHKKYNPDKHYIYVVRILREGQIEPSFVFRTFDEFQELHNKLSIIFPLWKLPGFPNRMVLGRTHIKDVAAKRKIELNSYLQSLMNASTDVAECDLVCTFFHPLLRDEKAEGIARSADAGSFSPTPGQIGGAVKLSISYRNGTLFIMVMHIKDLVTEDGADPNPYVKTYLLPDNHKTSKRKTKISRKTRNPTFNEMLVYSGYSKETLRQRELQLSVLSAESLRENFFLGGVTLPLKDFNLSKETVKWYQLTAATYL

[5] = biological target: T3, Phosphatidylinositol 3-kinase C2 domain-containing subunit gamma (Homo sapiens, UniProt O75747); test: Inhibition of PI3KC2gamma (unknown origin)
T3 sequence (O75747 whole entry): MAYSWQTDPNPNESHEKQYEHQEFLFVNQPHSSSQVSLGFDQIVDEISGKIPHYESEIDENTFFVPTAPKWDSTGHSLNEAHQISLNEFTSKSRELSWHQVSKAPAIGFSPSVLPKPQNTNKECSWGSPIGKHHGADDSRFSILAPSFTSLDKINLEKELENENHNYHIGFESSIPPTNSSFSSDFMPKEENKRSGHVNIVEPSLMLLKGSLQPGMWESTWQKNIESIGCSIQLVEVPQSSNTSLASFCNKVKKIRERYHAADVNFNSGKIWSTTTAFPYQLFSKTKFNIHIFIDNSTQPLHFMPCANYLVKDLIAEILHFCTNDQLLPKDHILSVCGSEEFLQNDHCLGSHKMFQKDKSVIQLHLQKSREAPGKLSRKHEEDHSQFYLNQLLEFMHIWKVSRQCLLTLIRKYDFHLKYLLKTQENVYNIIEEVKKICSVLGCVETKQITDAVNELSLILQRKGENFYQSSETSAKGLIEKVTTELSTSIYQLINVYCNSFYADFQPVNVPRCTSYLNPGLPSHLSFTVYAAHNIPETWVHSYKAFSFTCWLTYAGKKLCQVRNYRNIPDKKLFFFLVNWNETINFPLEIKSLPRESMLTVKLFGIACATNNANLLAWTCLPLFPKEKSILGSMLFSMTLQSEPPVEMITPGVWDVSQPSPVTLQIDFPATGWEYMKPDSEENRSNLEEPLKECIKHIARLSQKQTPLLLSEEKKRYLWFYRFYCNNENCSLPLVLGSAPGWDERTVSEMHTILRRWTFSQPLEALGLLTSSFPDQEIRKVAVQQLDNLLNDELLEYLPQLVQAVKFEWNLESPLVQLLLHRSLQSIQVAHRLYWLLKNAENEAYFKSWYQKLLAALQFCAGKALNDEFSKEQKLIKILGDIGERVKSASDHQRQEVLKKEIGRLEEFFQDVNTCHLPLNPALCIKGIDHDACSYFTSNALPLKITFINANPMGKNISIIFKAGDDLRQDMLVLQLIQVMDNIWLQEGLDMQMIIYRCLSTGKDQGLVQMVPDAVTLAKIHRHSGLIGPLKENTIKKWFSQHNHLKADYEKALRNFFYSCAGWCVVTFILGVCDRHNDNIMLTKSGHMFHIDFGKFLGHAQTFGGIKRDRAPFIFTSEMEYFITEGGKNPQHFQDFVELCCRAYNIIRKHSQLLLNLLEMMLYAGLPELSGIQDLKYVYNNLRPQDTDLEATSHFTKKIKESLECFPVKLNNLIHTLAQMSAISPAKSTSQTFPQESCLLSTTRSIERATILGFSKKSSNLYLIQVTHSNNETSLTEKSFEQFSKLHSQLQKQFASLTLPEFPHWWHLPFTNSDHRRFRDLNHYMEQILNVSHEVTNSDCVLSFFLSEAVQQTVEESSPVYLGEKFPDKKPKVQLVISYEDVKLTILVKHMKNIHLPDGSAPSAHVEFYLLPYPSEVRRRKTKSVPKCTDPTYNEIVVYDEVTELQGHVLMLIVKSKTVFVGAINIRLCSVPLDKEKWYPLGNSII

[6] = biological target: Phosphatidylinositol 4,5-bisphosphate 3-kinase catalytic subunit gamma isoform (Homo sapiens, UniProt P48736); test: Inhibition of PI3Kgamma (unknown origin)
[7] = biological target: T4, Phosphatidylinositol 3-kinase catalytic subunit type 3 (Homo sapiens, UniProt Q8NEB9); test: Inhibition of N-terminal tagged full-length human VPS34 by luciferase-luciferin-coupled chemiluminescence assay
T4 sequence (Q8NEB9 whole entry): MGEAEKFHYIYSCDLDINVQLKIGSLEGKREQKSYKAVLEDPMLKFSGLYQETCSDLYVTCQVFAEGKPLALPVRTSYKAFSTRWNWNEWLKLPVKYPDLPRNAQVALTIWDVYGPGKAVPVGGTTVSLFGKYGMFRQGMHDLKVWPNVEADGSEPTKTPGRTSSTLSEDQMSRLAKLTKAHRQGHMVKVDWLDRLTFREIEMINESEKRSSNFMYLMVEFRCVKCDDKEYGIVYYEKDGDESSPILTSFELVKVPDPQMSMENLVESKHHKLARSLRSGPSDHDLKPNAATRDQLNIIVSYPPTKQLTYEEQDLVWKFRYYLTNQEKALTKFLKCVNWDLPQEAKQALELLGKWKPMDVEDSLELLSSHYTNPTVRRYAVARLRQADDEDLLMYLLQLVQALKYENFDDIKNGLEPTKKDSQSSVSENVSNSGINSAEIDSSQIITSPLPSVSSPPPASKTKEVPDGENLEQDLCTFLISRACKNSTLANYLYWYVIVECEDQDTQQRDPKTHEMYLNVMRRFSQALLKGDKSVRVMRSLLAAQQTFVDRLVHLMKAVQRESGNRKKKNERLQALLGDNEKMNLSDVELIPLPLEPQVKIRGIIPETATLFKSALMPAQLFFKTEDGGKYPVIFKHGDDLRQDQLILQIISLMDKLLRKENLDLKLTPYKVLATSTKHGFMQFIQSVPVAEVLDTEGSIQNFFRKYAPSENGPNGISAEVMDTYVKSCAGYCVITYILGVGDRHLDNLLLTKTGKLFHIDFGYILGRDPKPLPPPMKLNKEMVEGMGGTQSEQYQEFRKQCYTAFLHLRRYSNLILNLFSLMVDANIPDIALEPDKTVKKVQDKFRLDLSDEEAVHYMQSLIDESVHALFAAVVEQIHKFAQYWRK

[8] = biological target: T5, DNA-dependent protein kinase catalytic subunit (Homo sapiens, UniProt P78527); test: Inhibition of human DNA-PK by luciferase-luciferin-coupled chemiluminescence assay
[9] = biological target: T1, Phosphatidylinositol 4-phosphate 3-kinase C2 domain-containing subunit beta; test: Inhibition of PI3KC2beta (unknown origin) expressed in HEK293 cells using phosphatidylinositol and gamma-32P-ATP incubated for 20 mins by TLC assay or high-throughput membrane capture assay; format: cell-based
[10] = biological target: T4, Phosphatidylinositol 3-kinase catalytic subunit type 3; test: Inhibition of full length human recombinant VPS34 (unknown origin) using phosphatidylinositol and gamma-32P-ATP incubated for 20 mins by TLC assay or high-throughput membrane capture assay
[11] = biological target: T2, Phosphatidylinositol 4-phosphate 3-kinase C2 domain-containing subunit alpha; test: Inhibition of PI3KC2alpha (unknown origin) expressed in HEK293 cells using phosphatidylinositol and gamma-32P-ATP incubated for 20 mins by TLC assay or high-throughput membrane capture assay; format: cell-based
[12] = biological target: T5, DNA-dependent protein kinase catalytic subunit; test: Inhibition of DNA-PK (unknown origin)
[13] = biological target: T4, Phosphatidylinositol 3-kinase catalytic subunit type 3; test: Inhibition of human recombinant Vps34 using substrate PI incubated for 1 hr by Adapta kinase assay
[14] = biological target: T2, Phosphatidylinositol 4-phosphate 3-kinase C2 domain-containing subunit alpha; test: Inhibition of human recombinant PI3KC2alpha using substrate PI incubated for 1 hr by Adapta kinase assay
[15] = biological target: T1, Phosphatidylinositol 4-phosphate 3-kinase C2 domain-containing subunit beta; test: Inhibition of human recombinant PI3KC2beta using substrate PI incubated for 1 hr by Adapta kinase assay

CC(=O)Nc1ccc2nc(-c3cccc(NS(=O)(=O)c4ccc5ccccc5c4)c3)nc(N3CCOCC3)c2c1
IC50 [1]: > 100 µM | IC50 [2]: > 10 µM

C[C@@H]1COCCN1c1cc(=O)n2c(n1)N(Cc1cncc(Cl)c1)[C@H](C(F)(F)F)CC2
IC50 [3]: > 10 µM | IC50 [4]: > 10 µM | IC50 [1]: > 10 µM | IC50 [2]: > 10 µM | IC50 [5]: > 10 µM

Nc1ncc(-c2ccnc(Nc3ccncc3)n2)c(CC2CC2)n1
IC50 [1]: > 9.1 µM | IC50 [6]: 3 µM

CS(=O)(=O)N1CCN(Cc2cc3nc(-c4cccc5[nH]ncc45)nc(N4CCOCC4)c3s2)CC1 [PICTILISIB]
IC50 [4]: > 10 µM

COc1ccc(Cl)c(Nc2nc3ccccc3nc2NS(=O)(=O)c2cccc(NC(=O)C(C)(C)N)c2)c1 [PILARALISIB]
IC50 [7]: 7 µM | IC50 [8]: 4.8 µM

O=C1NC(=S)S/C1=C\c1ccc2c(c1)N(Cc1ccc(F)c(Cl)c1)C(=O)CO2
IC50 [9]: 0.37 µM | IC50 [10]: 10000 nM | IC50 [11]: 140 nM | IC50 [12]: 1500 nM

CC(C)(O)CNc1ncc(-c2ccnc(Nc3ccnc(Cl)c3)n2)c(CC2CC2)n1
IC50 [3]: > 10 µM | IC50 [4]: > 10 µM | IC50 [1]: > 1 µM | IC50 [2]: > 10 µM | IC50 [5]: > 10 µM

CC(=O)Nc1nc(C)c(-c2ccc(Cl)c(S(=O)(=O)NCCO)c2)s1
IC50 [9]: 14 µM | IC50 [10]: 320 nM

COc1ccc2c(c1OC)N=C(NC(=O)c1cccnc1)N1CCN=C21
IC50 [10]: 830 nM

CC(=O)Nc1ccc2nc(-c3cccc(NS(=O)(=O)c4ccccc4)c3)nc(N3CCOCC3)c2c1
IC50 [1]: > 100 µM | IC50 [2]: > 10 µM

FC(F)c1nc2ccccc2n1-c1nc(N2CCOCC2)nc(N2CCOCC2)n1 [ZSTK-474]
IC50 [13]: > 100000 nM

Cn1c(=O)n(-c2ccc(C(C)(C)C#N)cc2)c2c3cc(-c4cnc5ccccc5c4)ccc3ncc21 [DACTOLISIB]
IC50 [14]: 34 nM | IC50 [15]: 44 nM | IC50 [13]: 450 nM
